These results are taken from ChEMBL document CHEMBL4219086, “Development of benzoxazole deoxybenzoin oxime and acyloxylamine derivatives targeting innate immune sensors and xanthine oxidase for treatment of gout” (Bioorg Med Chem, 2018).

By IC50 is commonly meant the concentration that gives 50% inhibition. In general, inhibition refers to the relative decrease from the control value, in per cent. In general, inhibition in vivo refers to the share of the control response that was lost under treatment. A high value points to a response far below the control.

The source made the active and inactive calls. The rule behind the calls is not given here.

For test [1], the target named is Xanthine dehydrogenase/oxidase (Homo sapiens, UniProt P47989). As to the kind of experiment: Inhibition of Xanthine oxidase (unknown origin) using xanthine as substrate preincubated for 1 to 5 mins followed by substrate addition.
Chain of Xanthine dehydrogenase/oxidase (P47989 whole entry): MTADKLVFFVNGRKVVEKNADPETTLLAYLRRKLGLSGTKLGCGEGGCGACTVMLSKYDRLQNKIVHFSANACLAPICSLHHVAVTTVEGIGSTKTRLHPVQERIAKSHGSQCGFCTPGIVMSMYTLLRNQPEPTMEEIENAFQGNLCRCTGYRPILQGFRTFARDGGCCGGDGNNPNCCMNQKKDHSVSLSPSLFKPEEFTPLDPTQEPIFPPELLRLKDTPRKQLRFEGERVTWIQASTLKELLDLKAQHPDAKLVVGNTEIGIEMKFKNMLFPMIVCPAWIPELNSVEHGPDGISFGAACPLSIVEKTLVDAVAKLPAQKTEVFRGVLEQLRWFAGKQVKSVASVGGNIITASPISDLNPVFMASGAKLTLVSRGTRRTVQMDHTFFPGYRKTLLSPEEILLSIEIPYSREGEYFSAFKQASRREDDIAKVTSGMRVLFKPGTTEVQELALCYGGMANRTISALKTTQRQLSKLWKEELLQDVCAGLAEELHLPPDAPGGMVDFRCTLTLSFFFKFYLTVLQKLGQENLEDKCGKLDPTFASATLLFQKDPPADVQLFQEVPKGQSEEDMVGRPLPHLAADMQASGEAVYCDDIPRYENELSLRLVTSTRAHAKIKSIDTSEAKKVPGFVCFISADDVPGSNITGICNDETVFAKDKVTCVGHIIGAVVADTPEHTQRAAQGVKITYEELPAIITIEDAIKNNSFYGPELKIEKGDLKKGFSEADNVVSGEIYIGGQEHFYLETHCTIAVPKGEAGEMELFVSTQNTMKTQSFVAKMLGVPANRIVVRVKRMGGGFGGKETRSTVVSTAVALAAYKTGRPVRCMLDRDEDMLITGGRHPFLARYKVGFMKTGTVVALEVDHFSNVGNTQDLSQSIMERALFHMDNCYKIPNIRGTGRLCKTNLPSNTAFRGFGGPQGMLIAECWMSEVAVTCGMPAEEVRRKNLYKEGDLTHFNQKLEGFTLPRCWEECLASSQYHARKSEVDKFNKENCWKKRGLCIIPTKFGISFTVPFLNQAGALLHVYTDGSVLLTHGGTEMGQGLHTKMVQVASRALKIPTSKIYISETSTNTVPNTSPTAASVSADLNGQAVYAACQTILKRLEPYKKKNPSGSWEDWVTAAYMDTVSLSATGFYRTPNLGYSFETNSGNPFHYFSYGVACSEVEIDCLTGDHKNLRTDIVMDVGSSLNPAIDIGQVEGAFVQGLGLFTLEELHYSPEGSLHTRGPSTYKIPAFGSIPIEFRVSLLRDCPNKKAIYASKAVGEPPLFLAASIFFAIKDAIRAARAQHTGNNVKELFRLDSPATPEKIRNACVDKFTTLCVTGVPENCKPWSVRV
Test [2] concerns Rattus norvegicus. Kind of test: Antiarthritic activity in MSU-induced acute gouty arthritis Sprague-Dawley rat model assessed as reduction in ankle swelling by measuring perimeter of ankle at 10 mg/kg, po qd pretreated via gavage for 5 days followed by MSU treatment at 1 hr post last dose measured immediately (reference value: 2.64 +/- 0.81 cm). Format: functional.
Test [3] relates to Rattus norvegicus. Kind of test: Antiarthritic activity in MSU-induced acute gouty arthritis Sprague-Dawley rat model assessed as reduction in ankle swelling by measuring perimeter of ankle at 10 mg/kg, po qd pretreated via gavage for 5 days followed by MSU treatment at 1 hr post last dose measured after 2 hrs (reference value: 2.82 +/- 0.75 cm). Type of test: functional.
Test [4] relates to Rattus norvegicus. As to the kind of experiment: Antiarthritic activity in MSU-induced acute gouty arthritis Sprague-Dawley rat model assessed as reduction in ankle swelling by measuring perimeter of ankle at 10 mg/kg, po qd pretreated via gavage for 5 days followed by MSU treatment at 1 hr post last dose measured after 4 hrs (reference value: 3.18 +/- 0.64 cm). Type of test: functional.

Test [5] relates to Rattus norvegicus. Kind of test: Antiarthritic activity in MSU-induced acute gouty arthritis Sprague-Dawley rat model assessed as reduction in ankle swelling by measuring perimeter of ankle at 10 mg/kg, po qd pretreated via gavage for 5 days followed by MSU treatment at 1 hr post last dose measured after 8 hrs (reference value: 3.27 +/- 0.56 cm). Type of test: functional.
The subject of test [6] is Rattus norvegicus. Kind of test: Antiarthritic activity in MSU-induced acute gouty arthritis Sprague-Dawley rat model assessed as reduction in ankle swelling by measuring perimeter of ankle at 10 mg/kg, po qd pretreated via gavage for 5 days followed by MSU treatment at 1 hr post last dose measured after 12 hrs (reference value: 3.51 +/- 0.52 cm). Type of test: functional.

Test [7] concerns Rattus norvegicus. Kind of test: Antiarthritic activity in MSU-induced acute gouty arthritis Sprague-Dawley rat model assessed as reduction in ankle swelling by measuring perimeter of ankle at 10 mg/kg, po qd pretreated via gavage for 5 days followed by MSU treatment at 1 hr post last dose measured after 24 hrs (reference value: 3.35 +/- 0.5 cm). Type of test: functional.
Test [8] relates to Rattus norvegicus. As to the kind of experiment: Inhibition of MSU-induced IL-1beta level in serum of acute gouty arthritis Sprague-Dawley rat model at 10 mg/kg, po qd pretreated via gavage for 5 days followed by MSU treatment at 1 hr post last dose measured up to 24 hrs by ELISA. Type of test: functional, organism-based. On the technique in general: In an ELISA, binding on a coated surface is turned into a signal by an enzyme label.

For test [9], the system named is Rattus norvegicus. As to the kind of experiment: Inhibition of MSU-induced TNFalpha level in serum of acute gouty arthritis Sprague-Dawley rat model at 10 mg/kg, po qd pretreated via gavage for 5 days followed by MSU treatment at 1 hr post last dose measured up to 24 hrs by ELISA. Type of test: functional, organism-based.
Test [10] deals with Rattus norvegicus. As to the kind of experiment: Inhibition of MSU-induced IL-1beta level in synovial homogenate of acute gouty arthritis Sprague-Dawley rat model at 10 mg/kg, po qd pretreated via gavage for 5 days followed by MSU treatment at 1 hr post last dose measured up to 24 hrs by ELISA. Format: functional, organism-based.
Test [11] relates to Rattus norvegicus. As to the kind of experiment: Inhibition of MSU-induced TNFalpha level in synovial homogenate of acute gouty arthritis Sprague-Dawley rat model at 10 mg/kg, po qd pretreated via gavage for 5 days followed by MSU treatment at 1 hr post last dose measured up to 24 hrs by ELISA. Type of test: functional, organism-based.
Test [12] relates to Rattus norvegicus. Kind of test: Inhibition of MSU-induced NLRP3 protein level in synovial homogenate of acute gouty arthritis Sprague-Dawley rat model at 10 mg/kg, po qd pretreated via gavage for 5 days followed by MSU treatment at 1 hr post last dose measured up to 24 hrs by Western blot method. Format: functional, organism-based.
The test system of test [13] is Rattus norvegicus. As to the kind of experiment: Inhibition of MSU-induced ASC protein level in synovial homogenate of acute gouty arthritis Sprague-Dawley rat model at 10 mg/kg, po qd pretreated via gavage for 5 days followed by MSU treatment at 1 hr post last dose measured up to 24 hrs by Western blot method. Type of test: functional, organism-based. For orientation: Immunoblotting shows a protein as a band on a membrane.

Test [14] deals with Rattus norvegicus. Kind of test: Inhibition of MSU-induced caspase-1 protein level in synovial homogenate of acute gouty arthritis Sprague-Dawley rat model at 10 mg/kg, po qd pretreated via gavage for 5 days followed by MSU treatment at 1 hr post last dose measured up to 24 hrs by Western blot method. Format: functional, organism-based.
The test system of test [15] is Rattus norvegicus. Kind of test: Inhibition of MSU-induced TLR4 protein level in synovial homogenate of acute gouty arthritis Sprague-Dawley rat model at 10 mg/kg, po qd pretreated via gavage for 5 days followed by MSU treatment at 1 hr post last dose measured up to 24 hrs by Western blot method. Type of test: functional, organism-based.
Test [16] concerns Rattus norvegicus. As to the kind of experiment: Inhibition of MSU-induced MyD88 protein level in synovial homogenate of acute gouty arthritis Sprague-Dawley rat model at 10 mg/kg, po qd pretreated via gavage for 5 days followed by MSU treatment at 1 hr post last dose measured up to 24 hrs by Western blot method. Format: functional, organism-based.
Test [17] concerns Rattus norvegicus. As to the kind of experiment: Inhibition of MSU-induced phosphorylated IkappaB protein level in synovial homogenate of acute gouty arthritis Sprague-Dawley rat model at 10 mg/kg, po qd pretreated via gavage for 5 days followed by MSU treatment at 1 hr post last dose measured up to 24 hrs by Western blot method. Format: functional, organism-based.
In test [18] the test system is Rattus norvegicus. As to the kind of experiment: Inhibition of MSU-induced p65 NFkappaB protein level in synovial homogenate of acute gouty arthritis Sprague-Dawley rat model at 10 mg/kg, po qd pretreated via gavage for 5 days followed by MSU treatment at 1 hr post last dose measured up to 24 hrs by Western blot method. Type of test: functional, organism-based.
Test [19] has as its target Toll-like receptor 4 (Homo sapiens, UniProt O00206). Kind of test: Inhibition of human TLR4 signaling expressed in HEK-Blue cells co-expressing MD2/CD14 assessed as reduction in LPS-induced NF-kappaB activation-mediated SEAP production preincubated for 2 hrs followed by LPS stimulation for 20 hrs by colorimetric assay. Type of test: cell-based.
For test [20], the target named is NACHT, LRR and PYD domains-containing protein 3 (Homo sapiens, UniProt Q96P20). As to the kind of experiment: Inhibition of NLRP3 inflammasome in human THP1 cells assessed as reduction in MSU-induced IL-1beta production preincubated for 1 hr followed by MSU stimulation measured after 6 hrs. Format: cell-based.
Chain of NACHT, LRR and PYD domains-containing protein 3 (Q96P20 whole entry, the tested form may be a part): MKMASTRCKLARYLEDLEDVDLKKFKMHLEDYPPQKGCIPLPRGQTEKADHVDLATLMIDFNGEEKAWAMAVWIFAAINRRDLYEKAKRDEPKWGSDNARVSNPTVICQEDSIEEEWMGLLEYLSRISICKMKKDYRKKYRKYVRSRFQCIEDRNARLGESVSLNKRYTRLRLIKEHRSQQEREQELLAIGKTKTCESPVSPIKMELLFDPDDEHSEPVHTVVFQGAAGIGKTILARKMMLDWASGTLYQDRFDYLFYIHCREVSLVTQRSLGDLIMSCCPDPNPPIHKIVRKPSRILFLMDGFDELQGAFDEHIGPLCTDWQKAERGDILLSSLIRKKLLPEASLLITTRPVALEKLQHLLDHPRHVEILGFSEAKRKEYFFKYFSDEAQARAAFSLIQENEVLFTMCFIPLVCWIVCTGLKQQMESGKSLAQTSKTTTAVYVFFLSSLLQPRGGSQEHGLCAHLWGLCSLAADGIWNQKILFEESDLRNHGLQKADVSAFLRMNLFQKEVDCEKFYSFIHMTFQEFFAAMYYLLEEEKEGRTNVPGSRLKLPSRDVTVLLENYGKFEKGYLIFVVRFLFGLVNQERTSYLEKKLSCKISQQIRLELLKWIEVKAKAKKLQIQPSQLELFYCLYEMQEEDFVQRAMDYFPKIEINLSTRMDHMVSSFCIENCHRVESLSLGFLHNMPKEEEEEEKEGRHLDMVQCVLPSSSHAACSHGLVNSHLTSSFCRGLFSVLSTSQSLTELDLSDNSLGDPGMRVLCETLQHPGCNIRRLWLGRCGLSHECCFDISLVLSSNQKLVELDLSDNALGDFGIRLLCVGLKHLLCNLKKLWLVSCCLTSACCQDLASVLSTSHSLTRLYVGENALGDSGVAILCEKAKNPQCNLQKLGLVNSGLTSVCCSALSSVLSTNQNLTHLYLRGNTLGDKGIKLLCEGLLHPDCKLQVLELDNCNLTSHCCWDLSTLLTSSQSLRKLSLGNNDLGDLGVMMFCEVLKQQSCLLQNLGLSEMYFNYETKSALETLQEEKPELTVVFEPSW
The test system of test [21] is Mus musculus. As to the kind of experiment: In vivo inhibition of XOD activity in liver of Kunming mouse model of potassium oxonate-induced hyperuricemia at 10 mg/kg, po treated 1 hr post potassium oxonate addition measured after 1 hr relative to control. Type of test: functional.
The subject of test [22] is Mus musculus. Kind of test: Hypouricemic effect in Kunming mouse assessed as inhibition of hepatic XOD activity at 10 mg/kg, po measured after 1 hr relative to control. Type of test: organism-based.
The species named for test [23] is Mus musculus. As to conditions: Kunming, 10 mg/kg.
Description: Anti-hyperuricemic effect in Kunming mouse assessed as inhibition of potassium oxonate-induced serum uric acid level at 10 mg/kg, po treated 1 hr post potassium oxonate addition measured after 1 hr by phosphotungstic acid method relative to control

Chain of Toll-like receptor 4 (O00206 whole entry, the tested form may be a part): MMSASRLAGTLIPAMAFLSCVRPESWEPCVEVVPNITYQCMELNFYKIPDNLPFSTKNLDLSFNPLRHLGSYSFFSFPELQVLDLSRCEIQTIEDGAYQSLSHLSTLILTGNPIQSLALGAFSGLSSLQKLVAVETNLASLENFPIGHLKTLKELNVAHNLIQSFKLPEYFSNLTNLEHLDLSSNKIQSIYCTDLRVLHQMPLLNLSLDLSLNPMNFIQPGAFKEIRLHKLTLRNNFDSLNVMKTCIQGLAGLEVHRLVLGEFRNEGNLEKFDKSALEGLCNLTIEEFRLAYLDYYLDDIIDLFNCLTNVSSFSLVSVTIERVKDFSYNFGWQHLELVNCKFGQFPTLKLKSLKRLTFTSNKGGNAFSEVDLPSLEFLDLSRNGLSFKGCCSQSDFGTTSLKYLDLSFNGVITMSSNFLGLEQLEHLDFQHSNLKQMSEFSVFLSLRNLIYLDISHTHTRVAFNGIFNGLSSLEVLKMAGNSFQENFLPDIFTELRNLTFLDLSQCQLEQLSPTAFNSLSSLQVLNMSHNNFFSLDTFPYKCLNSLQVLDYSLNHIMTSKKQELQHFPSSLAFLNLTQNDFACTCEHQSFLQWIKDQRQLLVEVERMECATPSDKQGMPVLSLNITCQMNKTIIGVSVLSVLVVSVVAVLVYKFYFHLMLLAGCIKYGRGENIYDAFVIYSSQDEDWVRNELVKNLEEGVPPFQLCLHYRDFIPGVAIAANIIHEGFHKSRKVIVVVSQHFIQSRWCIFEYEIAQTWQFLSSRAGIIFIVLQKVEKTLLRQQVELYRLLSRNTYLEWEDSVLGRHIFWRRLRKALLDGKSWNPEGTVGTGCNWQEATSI

The compound `O/N=C(\Cc1ccc(F)cc1)c1nc2ccc(Cl)cc2o1` gave an IC50 in [1] of over 100 µM.
For the compound `COc1cc2c(c(OC)c1OC)-c1ccc(OC)c(=O)cc1[C@@H](NC(C)=O)CC2` [COLCHICINE], the Activity in [2] is 2.49 cm; in [3] it was 2.73 cm; in test [4], 2.81 cm; in [5], 2.77 cm; in test [6], 2.8 cm; in test [7], 2.79 cm. Also, the inhibition result in test [8], in test [9], in test [10], in test [11], in test [12] and in test [13] was “Active” throughout. For the same compound, the inhibition result in [14], in test [15], in [16], in test [17] and in test [18] was “Active” throughout.
`Cc1ccc2nc(/C(Cc3ccccc3)=N/O)oc2c1`: in test [19], the IC50 was found to be 19.3 µM.
`COc1ccc(C/C(=N\O)c2nc3ccc(Cl)cc3o2)cc1`: the IC50 in test [1] amounted to 17.8 µM; in test [20], 5.72 µM; in [19], 5.42 µM.
As for `O/N=C(\Cc1ccccc1)c1nc2ccc(Br)cc2o1`, the IC50 in [1] was over 100 µM.
Take `CCOC(=O)C1=CCCC[C@H]1S(=O)(=O)Nc1ccc(F)cc1Cl` [RESATORVID]: in [19], the IC50 worked out at 0.68 µM.
Consider `O/N=C(\Cc1ccc(F)cc1)c1nc2ccc(Br)cc2o1`, for which the IC50 in test [1] was over 100 µM.
Regarding `COc1ccccc1C(=O)O/N=C(\C)c1nc2ccccc2o1`, the figures for the IC50 in test [1], in test [20] and in [19] were 15.2 µM, 39.5 µM and 25.9 µM, respectively.
For the compound `Cc1ccc2oc(/C(Cc3ccc(F)cc3)=N/O)nc2c1`, in [19], the IC50 was 45.7 µM.
Consider `O=C(/C=C/c1ccc(O)cc1)c1ccc(O)cc1O` [ISOLIQUIRITIGENIN], for which the IC50 in test [20] is 1.54 µM.
In test [1], `O/N=C(\Cc1ccc(F)cc1)c1nc2cc(Cl)ccc2o1` came in with an IC50 of over 100 µM.
`Oc1ncnc2[nH]ncc12` [ALLOPURINOL] showed an inhibition in vivo at 10 mg/kg in test [21] of 47.1%. Also, the inhibition at 10 mg/kg in [22] came out at 27.9%. Moreover, the inhibition entry in test [23] is “Active”.
